Test results taken from US9630952B2, “Crystalline forms of afatinib di-maleate” (IVAX INTERNATIONAL GMBH, priority 2014, dated 2017).
Blank lines part the entries; values can stand above or below the molecule they belong to.

Key:
Format in all cases: physicochemical
[1] = competitive slurry experiment comparing thermodynamic stabilities of forms A and Alpha
Text: As discussed above, crystalline form Alpha of Afatinib di-maleate has some advantages. […] Pharmaceutical molecules may display solid to solid phase transformations, transformations between polymorphs or between unsolvated and solvated form, which may be detected by competitive slurry experiments.

[2] = polymorphic stability under mechanical stress; conditions: exposed to mechanical stress (e.g. grinding, tabletting pressure); compared to Form A
Text: As discussed above, crystalline form M of Afatinib di-maleate has advantages. […] As formulation processes often involve mechanical stress exerting technologies e.g. during grinding or under strong pressure in a tabletting machine, the polymorphic stability of API material is a desirable property.

wettability = conditions: compared to form A
Text: As discussed above, crystalline form N of Afatinib di-maleate has some advantages. […] Wetting is the ability of a liquid (e.g. water) to maintain contact with a solid surface (e.g., API). It is a precursor to dissolution and so the wettability of a drug particle has a significant influence on the dissolution rates and the release characteristics in an oral pharmaceutical delivery. Wettability may also influence the interactions with other particles during formulation and manufacture. A polymorph with enhanced wettability ensures proper solubility measurement of the API per se and in formulation during dissolution experiments, i.e., better distribution of water and properly wetted sample.

solid form resulting from competitive slurry of forms A and Alpha ([1]; in ethanol at room temperature, after about 67 hours): pure form Alpha
Compound: CN(C)C/C=C/C(=O)Nc1cc2c(Nc3ccc(F)c(Cl)c3)ncnc2cc1O[C@H]1CCOC1 [Form Alpha, Afatinib di-maleate]
thermodynamic stability ([1]; concluded from competitive slurry in ethanol at room temperature, compared to form A): enhanced thermodynamic stability of form Alpha over form A

Compound: CN(C)C/C=C/C(=O)Nc1cc2c(Nc3ccc(F)c(Cl)c3)ncnc2cc1O[C@H]1CCOC1 [Form M, Afatinib di-maleate]
polymorphic stability [2]: enhanced polymorphic stability compared to Form A

wettability (wettability): better wettability over form A
Compound: CN(C)C/C=C/C(=O)Nc1cc2c(Nc3ccc(F)c(Cl)c3)ncnc2cc1O[C@H]1CCOC1 [Form N, Afatinib di-maleate]
